Assay results: ChEMBL document CHEMBL1134625 (J Med Chem, 2001)

Legend:
[1] = molecular target: Cannabinoid receptor 1 (Homo sapiens, UniProt P21554)
[2] = molecular target: T1, D(4) dopamine receptor (Homo sapiens, UniProt P21917)
T1 sequence (P21917 whole entry): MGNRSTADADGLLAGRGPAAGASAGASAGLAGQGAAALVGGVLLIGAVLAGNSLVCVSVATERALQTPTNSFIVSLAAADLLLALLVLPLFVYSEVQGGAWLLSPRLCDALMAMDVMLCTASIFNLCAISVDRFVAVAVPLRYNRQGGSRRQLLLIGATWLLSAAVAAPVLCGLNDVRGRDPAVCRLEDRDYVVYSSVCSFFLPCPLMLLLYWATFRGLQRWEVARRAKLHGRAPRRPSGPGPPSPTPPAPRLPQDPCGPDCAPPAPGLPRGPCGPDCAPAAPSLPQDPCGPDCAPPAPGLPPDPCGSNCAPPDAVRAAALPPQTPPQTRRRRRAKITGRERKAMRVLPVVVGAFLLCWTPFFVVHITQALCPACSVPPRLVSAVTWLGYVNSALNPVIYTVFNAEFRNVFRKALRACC

[3] = molecular target: Histamine H2 receptor (Homo sapiens, UniProt P25021)
Chain of Histamine H2 receptor (P25021 whole entry): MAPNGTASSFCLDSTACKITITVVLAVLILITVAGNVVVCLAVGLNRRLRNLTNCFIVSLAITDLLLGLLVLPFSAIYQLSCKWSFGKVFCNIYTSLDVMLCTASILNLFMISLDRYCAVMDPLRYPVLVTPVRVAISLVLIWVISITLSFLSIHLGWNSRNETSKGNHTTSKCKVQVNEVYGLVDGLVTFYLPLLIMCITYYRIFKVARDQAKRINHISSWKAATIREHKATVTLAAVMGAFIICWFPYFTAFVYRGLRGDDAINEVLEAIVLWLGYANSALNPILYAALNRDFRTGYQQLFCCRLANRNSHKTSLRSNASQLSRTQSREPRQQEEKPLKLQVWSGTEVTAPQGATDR

[4] = molecular target: Voltage-gated L-type calcium channel (Homo sapiens, UniProt Q13936+Q13698+Q01668+O60840); assay type: protein assay
[5] = molecular target: T2, Adenosine receptor A3 (Homo sapiens, UniProt P0DMS8)
T2 sequence (P0DMS8 whole entry): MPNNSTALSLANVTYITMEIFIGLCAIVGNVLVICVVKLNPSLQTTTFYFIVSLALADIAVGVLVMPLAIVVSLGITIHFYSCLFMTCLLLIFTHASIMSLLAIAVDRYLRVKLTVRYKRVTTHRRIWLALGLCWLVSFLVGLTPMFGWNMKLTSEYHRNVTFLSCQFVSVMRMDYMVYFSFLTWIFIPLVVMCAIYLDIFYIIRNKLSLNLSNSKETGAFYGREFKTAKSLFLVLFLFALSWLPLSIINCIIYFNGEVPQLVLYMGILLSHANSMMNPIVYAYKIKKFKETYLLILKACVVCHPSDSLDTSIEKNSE

[6] = molecular target: Sodium-dependent noradrenaline transporter (Homo sapiens, UniProt P23975)
Chain of Sodium-dependent noradrenaline transporter (P23975 whole entry): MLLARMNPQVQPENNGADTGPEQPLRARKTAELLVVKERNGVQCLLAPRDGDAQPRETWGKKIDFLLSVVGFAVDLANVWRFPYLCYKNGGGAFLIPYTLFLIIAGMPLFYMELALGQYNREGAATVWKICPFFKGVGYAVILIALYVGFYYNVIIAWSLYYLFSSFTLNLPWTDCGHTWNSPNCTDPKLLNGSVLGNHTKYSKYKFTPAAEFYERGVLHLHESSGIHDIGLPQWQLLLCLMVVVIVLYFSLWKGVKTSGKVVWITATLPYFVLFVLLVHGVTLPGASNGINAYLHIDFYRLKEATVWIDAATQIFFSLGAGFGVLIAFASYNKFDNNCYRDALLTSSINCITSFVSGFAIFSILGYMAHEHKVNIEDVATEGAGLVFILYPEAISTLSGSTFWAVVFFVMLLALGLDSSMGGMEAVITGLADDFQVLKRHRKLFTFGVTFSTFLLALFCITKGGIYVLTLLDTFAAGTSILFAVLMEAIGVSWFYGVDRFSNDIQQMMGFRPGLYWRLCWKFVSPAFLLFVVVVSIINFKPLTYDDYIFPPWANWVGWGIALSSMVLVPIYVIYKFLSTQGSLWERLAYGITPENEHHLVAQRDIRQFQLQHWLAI

Chain of Cannabinoid receptor 1 (P21554 whole entry): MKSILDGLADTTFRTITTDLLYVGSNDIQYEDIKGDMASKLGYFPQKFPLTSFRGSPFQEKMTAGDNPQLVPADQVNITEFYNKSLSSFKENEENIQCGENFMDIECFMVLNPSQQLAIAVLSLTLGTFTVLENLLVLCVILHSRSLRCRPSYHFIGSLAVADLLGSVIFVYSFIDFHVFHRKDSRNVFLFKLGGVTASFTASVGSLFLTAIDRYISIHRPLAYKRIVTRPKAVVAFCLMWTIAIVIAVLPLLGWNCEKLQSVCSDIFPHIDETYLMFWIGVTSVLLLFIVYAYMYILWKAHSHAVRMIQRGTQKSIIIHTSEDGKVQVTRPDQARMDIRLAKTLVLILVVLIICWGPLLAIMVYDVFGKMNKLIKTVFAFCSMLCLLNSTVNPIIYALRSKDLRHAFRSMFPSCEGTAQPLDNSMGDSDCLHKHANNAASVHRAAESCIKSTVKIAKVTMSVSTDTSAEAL

## N#Cc1ccc(CCOC(=O)NC2CCN(CCCC(c3ccc(F)cc3)c3ccc(F)cc3)CC2)cc1
[1]
  IC50: 6090 nM
[2]
  IC50: 543 nM
[3]
  IC50: 368 nM
[4]
  IC50: 284 nM
[5]
  IC50: 5980 nM
[6]
  IC50: 1140 nM
